Here are results for 45 molecules from ChEMBL document CHEMBL1153340, “Inhibitors of HIV-1 attachment. Part 2: An initial survey of indole substitution patterns” (Bioorg Med Chem Lett, 2009).

Data set [1] can be described thus: Cytotoxicity against human HeLa67 cells expressing CD4/CCR5 after 3 days by XTT assay. In kind it is cell-based.
Data set [2] has as its system Human immunodeficiency virus 1. The data set can be described thus: Antiviral activity against pseudotype HIV1 JRFL infected in human HeLa67 cells expressing CD4/CCR5 after 3 days by luciferase reporter gene assay. In kind it is functional, organism-based. As to conditions: Human immunodeficiency virus 1, JRFL, HeLa67, 72 h.

Turning to `O=C(C(=O)N1CCN(C(=O)c2ccccc2)CC1)c1c[nH]c2cccc(Cl)c12`, the CC50 at 72 h in data set [1] was determined as 212 µM. This molecule gave an EC50 in data set [2] of 4.3 nM.

Molecule `O=C(C(=O)N1CCN(C(=O)c2ccccc2)CC1)c1c[nH]c2c(OCC(F)(F)F)ccc(F)c12` returned a CC50 at 72 h in data set [1] of 196 µM. Further, the response in data set [2] was half-maximal at 0.71 nM (EC50).

`COc1cccc2c(C(=O)C(=O)N3CCN(C(=O)c4ccccc4)CC3)c[nH]c12`: the CC50 at 72 h in data set [1] stood at 154 µM. In data set [2], this molecule returned an EC50 of 6.6 nM.

Regarding `COc1ccc2c(C(=O)C(=O)N3CCN(C(=O)c4ccccc4)CC3)c[nH]c2c1`, the CC50 at 72 h in data set [1] is > 300 µM. This molecule came in with an EC50 in data set [2] of 329 nM.

As to `O=C(C(=O)N1CCN(C(=O)c2ccccc2)CC1)c1cn(Cc2ccccc2)c2ccccc12`, the CC50 at 72 h in data set [1] turned out to be 182 µM. A half-maximal effect in data set [2] (EC50) was put at 13800 nM.

In data set [1], `O=C(C(=O)N1CCN(C(=O)c2ccccc2)CC1)c1c[nH]c2cc(C(F)(F)F)ccc12` had a CC50 at 72 h of 54.5 µM. For the same molecule, in data set [2], the EC50 is > 5000 nM.

For the molecule `CCc1cccc2c(C(=O)C(=O)N3CCN(C(=O)c4ccccc4)CC3)c[nH]c12`, the CC50 at 72 h in data set [1] was > 49 µM. For the same molecule, in data set [2], the EC50 stood at 24.2 nM.

For the molecule `CCOc1cccc2[nH]cc(C(=O)C(=O)N3CCN(C(=O)c4ccccc4)CC3)c12`, the CC50 at 72 h in data set [1] was > 94.8 µM. The same molecule displayed an EC50 in data set [2] of 0.45 nM.

As to `COc1cc2[nH]cc(C(=O)C(=O)N3CCN(C(=O)c4ccccc4)CC3)c2cc1OC`, in data set [1], the CC50 at 72 h was > 300 µM. For the same molecule, in data set [2], the EC50 came to 46500 nM.

Turning to `CC(=O)Oc1cccc2[nH]cc(C(=O)C(=O)N3CCN(C(=O)c4ccccc4)CC3)c12`, in data set [1], the CC50 at 72 h was > 300 µM. Moreover, a half-maximal response in data set [2] (EC50) required 24900 nM.

Consider `N#Cc1ccc(F)c2c(C(=O)C(=O)N3CCN(C(=O)c4ccccc4)CC3)c[nH]c12`, for which the CC50 at 72 h in data set [1] was > 300 µM. This molecule yielded an EC50 in data set [2] of 1.9 nM.

In turn, `Cn1cc(C(=O)C(=O)N2CCN(C(=O)c3ccccc3)CC2)c2ccccc21` returned a CC50 at 72 h in data set [1] of 226 µM. The EC50 in data set [2] is 265 nM.

Take `COc1ccc(Br)c2[nH]cc(C(=O)C(=O)N3CCN(C(=O)c4ccccc4)CC3)c12`: the CC50 at 72 h in data set [1] is 118 µM. Moreover, the EC50 in data set [2] was found to be 0.13 nM.

For the molecule `O=C(C(=O)N1CCN(C(=O)c2ccccc2)CC1)c1c[nH]c2ccc(Br)cc12`, the CC50 at 72 h in data set [1] was > 149 µM. A half-maximal effect in data set [2] (EC50) was put at 1090 nM.

Turning to `O=C(C(=O)N1CCN(C(=O)c2ccccc2)CC1)c1c[nH]c2cc(F)ccc12`, the CC50 at 72 h in data set [1] was > 245 µM. Besides, the response in data set [2] was half-maximal at 21.1 nM (EC50).

As for `N#Cc1ccc2[nH]cc(C(=O)C(=O)N3CCN(C(=O)c4ccccc4)CC3)c2c1`, the CC50 at 72 h in data set [1] was > 300 µM. The same molecule showed an EC50 in data set [2] of 121000 nM.

In the case of `COc1ccc(C#N)c2[nH]cc(C(=O)C(=O)N3CCN(C(=O)c4ccccc4)CC3)c12`, in data set [1], the CC50 at 72 h was > 275 µM. In data set [2], this molecule showed an EC50 of 0.06 nM.

As for `N#Cc1ccc(F)c2[nH]cc(C(=O)C(=O)N3CCN(C(=O)c4ccccc4)CC3)c12`, the CC50 at 72 h in data set [1] was > 300 µM. Besides, the EC50 in data set [2] is > 500 nM.

Regarding `COc1ccc2[nH]cc(C(=O)C(=O)N3CCN(C(=O)c4ccccc4)CC3)c2c1`, the CC50 at 72 h in data set [1] was > 300 µM. Also, in data set [2], the EC50 was 21100 nM.

Take `CCn1cc(C(=O)C(=O)N2CCN(C(=O)c3ccccc3)CC2)c2ccccc21`: in data set [1], the CC50 at 72 h is > 300 µM. Besides, the EC50 in data set [2] is 1450 nM.

`CC(=O)Oc1ccc2[nH]cc(C(=O)C(=O)N3CCN(C(=O)c4ccccc4)CC3)c2c1`: the CC50 at 72 h in data set [1] turned out to be 95.2 µM. This molecule also displayed an EC50 in data set [2] of 952 nM.

Molecule `CC(C)Oc1cccc2[nH]cc(C(=O)C(=O)N3CCN(C(=O)c4ccccc4)CC3)c12` yielded a CC50 at 72 h in data set [1] of 150 µM. For the same molecule, the EC50 in data set [2] was > 500 nM.

In data set [1], `O=C(C(=O)N1CCN(C(=O)c2ccccc2)CC1)c1c[nH]c2c(Br)cccc12` yielded a CC50 at 72 h of 64 µM. In addition, in data set [2], the midpoint of the response, the EC50, lay at 17.4 nM.

In data set [1], `CCOc1cccc2c(C(=O)C(=O)N3CCN(C(=O)c4ccccc4)CC3)c[nH]c12` displayed a CC50 at 72 h of 117 µM. This molecule gave an EC50 in data set [2] of 0.5 nM.

On to `COc1ccc(F)c2c(C(=O)C(=O)N3CCN(C(=O)c4ccccc4)CC3)c[nH]c12`, for which the CC50 at 72 h in data set [1] was > 300 µM. This molecule also yielded an EC50 in data set [2] of 0.06 nM.

In the case of `O=C(C(=O)N1CCN(C(=O)c2ccccc2)CC1)c1c[nH]c2c(Br)cc(F)cc12`, the CC50 at 72 h in data set [1] amounted to 22.5 µM. In data set [2], this molecule displayed an EC50 of 73.1 nM.

On to `COc1ccc(Cl)c2[nH]cc(C(=O)C(=O)N3CCN(C(=O)c4ccccc4)CC3)c12`, for which the CC50 at 72 h in data set [1] is > 300 µM. Besides, a half-maximal effect in data set [2] (EC50) was put at 0.07 nM.

As to `N#Cc1cccc2c(C(=O)C(=O)N3CCN(C(=O)c4ccccc4)CC3)c[nH]c12`, in data set [1], the CC50 at 72 h was determined as 234 µM. This molecule also showed an EC50 in data set [2] of 4.9 nM.

For `O=C(C(=O)N1CCN(C(=O)c2ccccc2)CC1)c1c[nH]c2ccc(F)cc12`, the CC50 at 72 h in data set [1] is > 300 µM. Moreover, it took 838 nM to reach a half-maximal effect in data set [2] (EC50).

As to `O=C(C(=O)N1CCN(C(=O)c2ccccc2)CC1)c1c[nH]c2cc(F)c(F)cc12`, half-maximal cytotoxicity in data set [1] (CC50 at 72 h) was put at 170 µM. For the same molecule, the EC50 in data set [2] was > 290 nM.

In the case of `O=C(C(=O)N1CCN(C(=O)c2ccccc2)CC1)c1c[nH]c2c(Cl)cccc12`, the CC50 at 72 h in data set [1] came to 162 µM. The EC50 in data set [2] turned out to be 4.4 nM.

For `O=C(C(=O)N1CCN(C(=O)c2ccccc2)CC1)c1c[nH]c2cc(F)c(Br)c(F)c12`, the CC50 at 72 h in data set [1] was found to be 20.9 µM. In data set [2], this molecule registered an EC50 of 23.1 nM.

Consider `Cc1ccc2[nH]cc(C(=O)C(=O)N3CCN(C(=O)c4ccccc4)CC3)c2c1`, for which the CC50 at 72 h in data set [1] was > 300 µM. The same molecule returned an EC50 in data set [2] of 1550 nM.

As to `COc1cccc2[nH]cc(C(=O)C(=O)N3CCN(C(=O)c4ccccc4)CC3)c12`, the CC50 at 72 h in data set [1] was > 300 µM. The molecule also had an EC50 in data set [2] of 0.52 nM.

`O=C(C(=O)N1CCN(C(=O)c2ccccc2)CC1)c1c[nH]c2cccc(O)c12`: the CC50 at 72 h in data set [1] is > 300 µM. Besides, the EC50 in data set [2] was determined as 20100 nM.

In turn, `C/C=C/n1cc(C(=O)C(=O)N2CCN(C(=O)c3ccccc3)CC2)c2ccccc21` showed a CC50 at 72 h in data set [1] of 202 µM. In data set [2], this molecule came in with an EC50 of 6760 nM.

On to `Cc1ccc(F)c2c(C(=O)C(=O)N3CCN(C(=O)c4ccccc4)CC3)c[nH]c12`, for which the CC50 at 72 h in data set [1] turned out to be 87.5 µM. The same molecule returned an EC50 in data set [2] of 0.56 nM.

Take `O=C(C(=O)N1CCN(C(=O)c2ccccc2)CC1)c1c[nH]c2c(Br)ccc(OC(F)(F)F)c12`: the CC50 at 72 h in data set [1] is 75.7 µM. Further, in data set [2], the EC50 amounted to 42.8 nM.

With `O=C(C(=O)N1CCN(C(=O)c2ccccc2)CC1)c1c[nH]c2ccc([N+](=O)[O-])cc12`, the CC50 at 72 h in data set [1] was found to be 44.6 µM. In data set [2], this molecule showed an EC50 of 3800 nM.

In the case of `Cc1cccc2c(C(=O)C(=O)N3CCN(C(=O)c4ccccc4)CC3)c[nH]c12`, in data set [1], the CC50 at 72 h was > 218 µM. The molecule also yielded an EC50 in data set [2] of 89.5 nM.

In data set [1], `O=C(C(=O)N1CCN(C(=O)c2ccccc2)CC1)c1c[nH]c2cc(Cl)c(F)cc12` gave a CC50 at 72 h of 98.5 µM. The EC50 in data set [2] was > 500 nM.

For the molecule `O=C(C(=O)N1CCN(C(=O)c2ccccc2)CC1)c1c[nH]c2cc(F)cc(F)c12`, in data set [1], the CC50 at 72 h was > 188 µM. Also, the midpoint of the response in data set [2], the EC50, lay at 0.42 nM.

As for `O=C(C(=O)N1CCN(C(=O)c2ccccc2)CC1)c1c[nH]c2c(F)c(F)c(F)c(F)c12`, the midpoint of cytotoxicity in data set [1], the CC50 at 72 h, lay at 55.7 µM. In data set [2], the EC50 is 1.7 nM.

As for `O=C(C(=O)N1CCN(C(=O)c2ccccc2)CC1)c1c[nH]c2c(Br)ccc(F)c12`, the CC50 at 72 h in data set [1] came out at 39.8 µM. For the same molecule, the EC50 in data set [2] came to 0.13 nM.

The molecule `O=C(C(=O)N1CCN(C(=O)c2ccccc2)CC1)c1c[nH]c2ccc(Cl)cc12` yielded a CC50 at 72 h in data set [1] of 46 µM. Also, the EC50 in data set [2] amounted to 395 nM.
